Experimental findings from ChEMBL document CHEMBL1201862, “PubChem BioAssay data set” (2004) are described below.

The source made the active and inactive calls.

Test system in the first test: not listed separately
Put plainly: HEp-2 cell cytotoxicity, dose response, cytotoxicity control for RSV inhibitor project, HTS (AID 2410). The test is classed as functional. To be noted: human respiratory syncytial virus.
One may read the CC50 as the concentration giving 50% cytotoxicity. Take `Cc1ccccc1/C=N/NC1=NC(=O)CCS1`: the CC50 is 26.4 µM (active).

Turning to `Clc1cccc(-c2nn3c(Cn4cnc5ccccc54)nnc3s2)c1`, the CC50 is > 50 µM (active).

On to `Clc1ccc(-c2cs/c(=N\c3cccnc3)n2CCCn2ccnc2)cc1Cl`, for which the CC50 was 15.4 µM (active).

On to `Cc1nc(SCC(=O)NCC2CCCO2)c2cc(-c3ccccc3)sc2n1` (stereo not given), for which the CC50 was 20.3 µM (active).

For `COc1ccccc1-c1cc(C(=O)N2CCN(c3ccccc3)CC2)no1`, the CC50 is 31.9 µM (active).

For the molecule `CCc1ccc2oc(-c3cc(N)ccc3Cl)nc2c1`, the CC50 was 41.3 µM (active).

For `Cc1cc(-c2ccc(NC(=O)[C@@H]3CCCC[C@@H]3C(=O)O)c(C)c2)ccc1NC(=O)[C@@H]1CCCC[C@@H]1C(=O)O`, the CC50 was 17.9 µM (active).

In a further test the target is T1, Ubiquitin-conjugating enzyme E2 N (Homo sapiens, UniProt P61088).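 Also: Dose-response confirmation in a TR-FRET assay detecting UBC13-driven polyubiquitin chain formation, inhibition measured.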
T1 sequence (P61088 whole entry): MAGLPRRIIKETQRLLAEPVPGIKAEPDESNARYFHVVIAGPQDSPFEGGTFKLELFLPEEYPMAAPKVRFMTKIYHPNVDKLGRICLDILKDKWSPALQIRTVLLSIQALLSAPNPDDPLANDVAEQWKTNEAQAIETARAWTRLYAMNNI
The test is classed as functional.
Details: not given
The term IC50 denotes the concentration at which inhibition is half-maximal. As to `C#CCOCCOCCOCCNc1nc(N2CCN(C(=O)[C@H]([C@@H](C)CC)n3cc(CCCCN)nn3)CC2)nc(N2CCN(C(=O)[C@H]([C@@H](C)CC)n3cc(CCCN=C(N)N)nn3)CC2)n1`, the IC50 was > 20 µM (inactive).

Turning to `C#CCOCCOCCOCCNc1nc(N2CCN(C(=O)C([C@@H](C)O)n3cc([C@@H](N)CCCCN)nn3)CC2)nc(N2CCN(C(=O)[C@H](CCCCN)n3cc([C@@H](N)CC(N)=O)nn3)CC2)n1` (stereo not given in full), the IC50 was > 20 µM (inactive).

For the molecule `Cc1cccc(N2CCc3c2nc2ccccc2c3N)c1`, the IC50 is > 20 µM (inactive).

`CCC[C@@H](CN1CCC[C@H]1CN1C(N)=NC[C@H]1C(C)C)N1C[C@@H](Cc2ccccc2)N(CCCC2CCCC2)C1=N`: the IC50 was > 20 µM (inactive).

Test system in the next test: not listed separately
The test is described as follows: Luminescence Cell-Based Dose Response HTS to Identify Inhibitors of 5'UTR Stem-Loop Driven Prion Protein mRNA Translation in H4 Neuroglioblastoma Cells. [Related pubchem assays: 1827 (Project Summary), 1813 (Primary HTS)]. The test is classed as functional.
Details: not given
By EC50 is commonly meant the concentration that produces a half-maximal response. Take `CC1(C)Cc2nc3sc4c(SCC(=O)NCc5ccccc5)ncnc4c3cc2CO1`: the EC50 was > 120 µM (not active).

The target of the next test is Cytochrome P450 2C9 (Homo sapiens, UniProt P11712).
Cytochrome P450 2C9, sequence (P11712 whole entry): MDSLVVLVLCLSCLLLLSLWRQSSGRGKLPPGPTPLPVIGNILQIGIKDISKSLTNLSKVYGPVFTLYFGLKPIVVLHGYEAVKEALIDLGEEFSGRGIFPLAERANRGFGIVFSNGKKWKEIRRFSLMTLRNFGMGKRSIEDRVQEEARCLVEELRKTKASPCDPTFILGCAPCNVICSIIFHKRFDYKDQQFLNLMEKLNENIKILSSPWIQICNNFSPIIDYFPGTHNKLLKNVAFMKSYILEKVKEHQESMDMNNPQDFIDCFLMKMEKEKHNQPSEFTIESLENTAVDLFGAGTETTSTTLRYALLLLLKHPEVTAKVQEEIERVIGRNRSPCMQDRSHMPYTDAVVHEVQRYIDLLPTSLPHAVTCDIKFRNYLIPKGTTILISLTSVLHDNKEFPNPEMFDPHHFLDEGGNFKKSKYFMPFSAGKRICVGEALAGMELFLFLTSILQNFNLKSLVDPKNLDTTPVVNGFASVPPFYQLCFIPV
Details: not given
Usually AC50 stands for the concentration giving half of the maximal activity seen. In the case of `O=C(c1ccncc1)N1CCC[C@@]2(CCN(c3ccccn3)C2)C1`, the AC50 was 20 µM (inconclusive).

For `CS(=O)(=O)N1CCN(c2c(Cl)cccc2[N+](=O)[O-])CC1`, the AC50 was 0.251 µM (inconclusive).

`Sc1nnc(CSCc2ccccc2Cl)n1-c1ccccc1`: the AC50 was 5.01 µM (inconclusive).

Consider `COC(=O)[C@@]1(Cc2ccc(OC)cc2)[C@@H]2[C@@H](CC(=O)[C@H]2CC(=O)C(=O)N(C)C)CN1C(=O)c1ccccc1`, for which the AC50 was 39.8 µM (inconclusive).

A further test has as its target T2, Cytochrome P450 1A2 (Homo sapiens, UniProt P05177).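 Also: PubChem cytochrome P450 panel assay, CYP1A2 panel member.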
T2 sequence (P05177 whole entry): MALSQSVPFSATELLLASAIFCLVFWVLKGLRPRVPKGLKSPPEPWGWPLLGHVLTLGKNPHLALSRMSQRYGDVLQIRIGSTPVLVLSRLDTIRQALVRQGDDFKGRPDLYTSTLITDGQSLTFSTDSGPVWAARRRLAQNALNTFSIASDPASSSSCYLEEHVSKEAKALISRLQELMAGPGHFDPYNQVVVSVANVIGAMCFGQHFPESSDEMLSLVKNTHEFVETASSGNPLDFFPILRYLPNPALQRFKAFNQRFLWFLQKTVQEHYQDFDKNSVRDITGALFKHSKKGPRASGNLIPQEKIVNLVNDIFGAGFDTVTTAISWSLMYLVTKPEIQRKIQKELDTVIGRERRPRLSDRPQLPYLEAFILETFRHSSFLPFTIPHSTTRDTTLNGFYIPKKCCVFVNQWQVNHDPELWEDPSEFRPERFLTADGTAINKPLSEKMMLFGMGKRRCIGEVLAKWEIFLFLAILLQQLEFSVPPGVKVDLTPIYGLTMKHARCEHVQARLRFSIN
Details: not given
`O=C(c1ccncc1)N1CCC[C@@]2(CCN(c3ccccn3)C2)C1`: the half-maximal activity concentration (AC50) is 20 µM (inconclusive).

On to `CN(C)CCN(C)CCc1ccc(Cl)c(Cl)c1`, for which the AC50 is 39.8 µM (inconclusive).

Regarding `O=C(O)[C@H]1C[C@@H](CP(=O)(O)O)CCN1`, the AC50 is 25.1 µM (inconclusive).

In the case of `CS(=O)(=O)N1CCN(c2c(Cl)cccc2[N+](=O)[O-])CC1`, the AC50 was 28.2 µM (inconclusive).

For `Sc1nnc(CSCc2ccccc2Cl)n1-c1ccccc1`, the AC50 is 22.4 µM (inconclusive).

As to `COC(=O)[C@@]1(Cc2ccc(OC)cc2)[C@@H]2[C@@H](CC(=O)[C@H]2CC(=O)C(=O)N(C)C)CN1C(=O)c1ccccc1`, the AC50 was 2 µM (inconclusive).

As to `COc1ccccc1OC[C@H](O)COC(N)=O`, the AC50 is 10 µM (inconclusive).

In the case of `Cc1cc(C)c(S(=O)(=O)Nc2cccc(C(F)(F)F)c2)c(C)c1`, the AC50 is 39.8 µM (inconclusive).

Test system in a further test: not listed separately
Put plainly: inhibitors of SNCA 5'UTR-driven reporter translation, confirmation, H4 neuroglioma cells, luminescence (AID 1988). Type of test: functional, cell-based.
Details: not given
On to `CC1(C)Cc2nc3sc4c(SCC(=O)NCc5ccccc5)ncnc4c3cc2CO1`, for which the EC50 is 3.72 µM (active).
